Columns and labels:
Type in all cases: in vivo
[1] = system: Italian ryegrass (Lolium multiflorum); assay: Test B pre-/postemergence plant response
Procedure, shortened: (§1)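 Evaluation is visual, about 10 days after application, rating injury from 0 (none) to 100 (complete control) relative to untreated controls. Application was a preemergence soil spray on seeded pots or a postemergence spray on one- to two-leaf plants.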

[2] = system: barnyardgrass (Echinochloa crus-galli); assay: Test B pre-/postemergence plant response
Procedure, shortened: as §1

corn (Zea mays) = assay: Test B pre-/postemergence plant response
Procedure, shortened: as §1

[3] = system: giant foxtail (Setaria faberii); assay: Test B pre-/postemergence plant response
Procedure, shortened: as §1

kochia (Kochia scoparia) = assay: Test B pre-/postemergence plant response
Procedure, shortened: as §1

[4] = system: pigweed (Amaranthus retroflexus); assay: Test B pre-/postemergence plant response
Procedure, shortened: as §1

[5] = system: ragweed (common ragweed, Ambrosia elatior); assay: Test B pre-/postemergence plant response
Procedure, shortened: as §1

[6] = system: wheat (Triticum aestivum); assay: Test B pre-/postemergence plant response
Procedure, shortened: as §1

[7] = system: blackgrass (Alopecurus myosuroides); assay: Test B postemergence plant response
Procedure, shortened: (§2)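 Values are visual control ratings (0 to 100) recorded approximately 10 days after postemergence application to greenhouse-grown plants of 2 to 10 cm, one- to two-leaf stage, each judged against untreated controls.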

[8] = system: galium (catchweed bedstraw, Galium aparine); assay: Test B postemergence plant response
Procedure, shortened: as §2

[9] = system: barnyardgrass (Echinochloa crus-galli); assay: Test C flooded paddy test plant response; settings: Flood, 250 g ai/ha; scale of 0 to 100 where 0 is no effect and 100 is complete control; 13 to 15 days
Procedure, shortened: (§3)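 Water-applied treatment: compounds go directly into floodwater standing 3 cm over the soil of pots holding 2-leaf-stage plants. Depth is kept constant; plants stay in a greenhouse 13 to 15 days before visual comparison with controls on a 0–100 scale.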

[10] = system: ducksalad (Heteranthera limosa); assay: Test C flooded paddy test plant response; settings: Flood, 250 g ai/ha; scale of 0 to 100 where 0 is no effect and 100 is complete control; 13 to 15 days
Procedure, shortened: as §3

rice (Oryza sativa) = assay: Test C flooded paddy test plant response; settings: Flood, 250 g ai/ha; scale of 0 to 100 where 0 is no effect and 100 is complete control; 13 to 15 days
Procedure, shortened: as §3

[11] = system: small-flower umbrella sedge (Cyperus difformis); assay: Test C flooded paddy test plant response; settings: Flood, 250 g ai/ha; scale of 0 to 100 where 0 is no effect and 100 is complete control; 13 to 15 days
Procedure, shortened: as §3

[12] = 125 g ai/ha, postemergence, 0 to 100 scale, 0 no effect, 100 complete control
[13] = Postemergence, 500 g ai/ha, 0 to 100 scale (0 no effect, 100 complete control)
[14] = Preemergence, 125 g ai/ha, 0 to 100 scale (0 no effect, 100 complete control)
[15] = Preemergence, 500 g ai/ha, 0 to 100 scale where 0 is no effect and 100 is complete control
[16] = 31 g ai/ha, Preemergence, 0 to 100 scale where 0 is no effect and 100 is complete control
[17] = Postemergence, 31 g ai/ha, 0 to 100 scale (0 no effect, 100 complete control)

| Compound | Plant response rating, Ryegrass, Italian [1, 12] | Ryegrass, Italian plant response rating [1, 14] | Plant response rating, Barnyardgrass [2, 12] | Barnyardgrass plant response rating [2, 14] | Plant response rating, Corn (corn (Zea mays); [12]) | Plant response rating, Foxtail, Giant [3, 12] | Foxtail, Giant plant response rating [3, 14] | Plant response rating, Kochia (kochia (Kochia scoparia); [12]) | Kochia plant response rating (kochia (Kochia scoparia); [14]) | Plant response rating, Pigweed [4, 12] | Pigweed plant response rating [4, 14] | Plant response rating, Ragweed [5, 12] | Ragweed plant response rating [5, 14] | Plant response rating, Wheat [6, 12] | Plant response rating, Blackgrass [7, 12] | Plant response rating, Galium [8, 12] | Barnyardgrass plant response rating [9] | Ducksalad plant response rating [10] | Rice plant response rating (rice (Oryza sativa)) | Sedge, Umbrella plant response rating [11] | further results |
| --- | --- | --- | --- | --- | --- | --- | --- | --- | --- | --- | --- | --- | --- | --- | --- | --- | --- | --- | --- | --- | --- |
| Clc1cnc(Oc2ccccc2-c2cccs2)nc1 [Compound 182] | 0 | 0 | 0 | 0 | 10 | 0 | 0 | 30 | 0 | 40 | 0 | 0 | 0 | 0 | 0 | 30 | 0 | 0 | 0 | 0 | Plant response rating, Ryegrass, Italian [1, 13]: 0; Plant response rating, Ryegrass, Italian [1, 15]: 10; Plant response rating, Barnyardgrass [2, 13]: 10; Plant response rating, Barnyardgrass [2, 15]: 20; Plant response rating, Corn (corn (Zea mays); [13]): 20; Plant response rating, Foxtail, Giant [3, 13]: 50; Plant response rating, Foxtail, Giant [3, 15]: 40; Plant response rating, Kochia (kochia (Kochia scoparia); [13]): 80; Plant response rating, Kochia (kochia (Kochia scoparia); [15]): 30; Plant response rating, Pigweed [4, 13]: 80; Plant response rating, Pigweed [4, 15]: 40; Plant response rating, Ragweed [5, 13]: 10; Plant response rating, Ragweed [5, 15]: 10; Plant response rating, Wheat [6, 13]: 0; Plant response rating, Blackgrass [7, 13]: 10; Plant response rating, Galium [8, 13]: 50 |
| Cc1cnc(Oc2ccccc2-c2cc(C(F)F)no2)nc1 [Compound 211] | 0 | 0 | 10 | 50 | 10 | 50 | 100 | 90 | 80 | 50 | 100 | 30 | 30 | 0 | 50 | 100 | 0 | 70 | 0 | 20 | Plant response rating, Ryegrass, Italian [1, 16]: 0; Plant response rating, Ryegrass, Italian [1, 17]: 0; Plant response rating, Barnyardgrass [2, 16]: 10; Plant response rating, Barnyardgrass [2, 17]: 0; Plant response rating, Corn (corn (Zea mays); [17]): 0; Plant response rating, Foxtail, Giant [3, 16]: 10; Plant response rating, Foxtail, Giant [3, 17]: 10; Plant response rating, Kochia (kochia (Kochia scoparia); [16]): 20; Plant response rating, Kochia (kochia (Kochia scoparia); [17]): 40; Plant response rating, Pigweed [4, 16]: 100; Plant response rating, Pigweed [4, 17]: 20; Plant response rating, Ragweed [5, 16]: 0; Plant response rating, Ragweed [5, 17]: 0; Plant response rating, Wheat [6, 17]: 0; Plant response rating, Blackgrass [7, 17]: 10; Plant response rating, Galium [8, 17]: 60 |
